Experiments:
[1] = Partition coefficient (logP); type: physicochemical; settings: octanol/water
[2] = Steady state volume of distribution at a dose of 0.2 mg/kg i.v.; type: ADME, organism-based, Canis lupus familiaris; parameters: dose 0.2 mg/kg, route intravenous; settings: dog, in vivo, iv, read-out: Vss
Canis familiaris [3] = test: Area under the curve at a dose of 1 mg/kg (oral); type: ADME, organism-based, Canis lupus familiaris; parameters: dose 1 mg/kg; settings: dog, in vivo
[4] = Clearance value at a dose of 0.2 mg/kg i.v.; type: ADME, organism-based, Canis lupus familiaris; parameters: dose 0.2 mg/kg, route intravenous; settings: dog, in vivo, iv, read-out: Cls (converted)
[5] = molecular target: T1, Corticotropin releasing factor receptor (Rattus norvegicus, UniProt P47866+P35353); test: In vitro binding affinity against Corticotropin releasing factor receptor in rat cortical homogenates
[6] = (§1) Half life was evaluated in dog; type: ADME, organism-based, Canis lupus familiaris; settings: in vivo
Canis familiaris [7] = species on record: Canis familiaris; test: as §1; type: ADME, organism-based, Canis lupus familiaris; settings: in vivo
[8] = Maximal plasma concentration at a dose of 1 mg/kg (oral); type: ADME, organism-based, Canis lupus familiaris; parameters: route oral, dose 1 mg/kg; settings: dog
Canis familiaris [9] = test: Area under the curve at i.v. dose of 0.2 mg/kg; type: ADME, organism-based, Canis lupus familiaris; parameters: dose 0.2 mg/kg, route intravenous; settings: dog, in vivo, iv
[10] = Oral bioavailability at a dose of 1 mg/kg in dogs; type: ADME, organism-based, Canis lupus familiaris; settings: dog, in vivo
[11] = pKa value of the compound; type: physicochemical
[12] = molecular target: T1, Corticotropin releasing factor receptor; test: In vitro binding affinity against CRF receptor in rat cortical homogenates

Structure (SMILES)	logP [1]	Ki [5] [nM]	other results
CCc1nc2c(-c3ccc(Cl)cc3Cl)nccc2n1C(CC)C1CC1 (stereo not drawn)	4.1	–	–
CCC[C@H](C)n1c(CC)nc2c(-c3ccc(OC(F)(F)F)cc3Cl)nccc21	–	2.3	Vd [2]: 19.1 L/kg; AUC (Canis familiaris [3]): 0.569 µM·h; clearance [4]: 23.3 mL/min/kg; half-life [6]: 15.1 h; T1/2 (Canis familiaris [7]): 9.4 h; Cmax [8]: 92.4 nM; AUC (Canis familiaris [9]): 0.341 µM·h; bioavailability [10]: 33%
CCCC(C)n1c(CC)nc2c(-c3ccc(Cl)cc3C)nccc21 (stereo not drawn)	–	9.1	–
CCc1nc2c(-c3ccc(Cl)cc3Cl)ccnc2n1C(CC)C1CC1 (stereo not drawn)	5.56	–	pKa [11]: 3.86
CCc1nc2c(-c3ccc(OC(F)(F)F)cc3Cl)nccc2n1C(C)CC (stereo not drawn)	–	–	Ki [12]: 7.8 nM
CCCC(C)n1c(CC)nc2c(-c3ccc(OC(F)F)cc3Cl)ccnc21 (stereo not drawn)	5.35	–	–
CCc1nc2c(-c3ccc(Cl)cc3C(F)(F)F)nccc2n1C(CC)C1CC1 (stereo not drawn)	–	4.4	–
CCC[C@@H](C)n1c(CC)nc2c(-c3ccc(OC(F)(F)F)cc3Cl)nccc21	–	1.9	–
CCCC(C)n1c(CC)nc2c(-c3ccc(Cl)cc3Cl)nccc21 (stereo not drawn)	–	3	–
CCc1nc2c(-c3ccc(C(F)(F)F)cc3Cl)nccc2n1C(CC)C1CC1 (stereo not drawn)	–	2.9	–
CCc1nc2c(-c3ccc(C(F)(F)F)cc3Cl)nccc2n1C(CC)CC	–	5.4	–
CCCC(C)n1c(CC)nc2c(-c3ccc(OC(F)F)cc3C)nccc21 (stereo not drawn)	–	9	–
CCc1nc2c(-c3ccc(Cl)cc3C)nccc2n1C(CC)C1CC1 (stereo not drawn)	–	14	–
CCCC(C)n1c(CC)nc2c(-c3ccc(OC(F)(F)F)cc3Cl)nccc21 (stereo not drawn)	4.62	2.8	pKa [11]: 5.09
CCc1nc2c(-c3ccc(Cl)cc3Cl)ncnc2n1C(C)C1CC1 (stereo not drawn)	4.33	–	pKa [11]: < 3
CCCC(C)n1c(CC)nc2c(-c3ccc(C(F)(F)F)cc3Cl)nccc21 (stereo not drawn)	–	3.5	–
